Patent US20230330151A1, “COMPOSITION FOR PROMOTING DIFFERENTIATION OF NEURAL STEM CELLS INTO DOPAMINERGIC NEURONS” (CHA UNIVERSITY INDUSTRY-ACADEMIC COOPERATION FOUNDATION, priority 2020, published 2023)

Legend:
[1] = test system: FMD-NPCs; experiment: Differentiation rate by subculture number, TH expression measured by fluorescence intensity; format: cell-based, human; details: FIG. 11; as the cells were subcultured
From the text: For each group, neural stem cells (A) subcultured less than 10 times, (B) subcultured 10 or more times and 20 or less times, (C) subcultured 20 or more times were used to compare average values, to compare and analyze differentiation rates according to a subcultured number.

[2] = test system: FMD-NSPCs (fetal midbrain derived neural stem/progenitor cells); experiment: Differentiation of neural stem cells into dopaminergic neurons, immunochemical staining for TH and Tuj1; format: cell-based, human; details: FIG. 3; FA: 0.1 mM; over time of differentiation

Compound: CCCCc1ccc(C(=O)O)nc1 [FA alone, 5-butylpicolinic acid]
- rate of differentiation into TH [1]: gradually decreased
- Tuj1 expression [2]: increased over time
- expression of TH [2]: decreased over time
